Test results as given in patent publication US4310521A, “Aspirin-isopropylantipyrine” (Toho Pharmaceutical Co., Ltd., priority 1979, dated 1982).
Entries after “also recorded” stand apart in the source; their conditions may differ. Where two headings read alike, the source gives them in different places.

Columns and labels:
[1] = tested on: mouse tail (pain threshold, heat); test: Prolongation time of pain threshold of mouse tail, D'Amour-Smith Method (analgetic activity); assay type: in vivo; conditions: mice, s.c., 200 mg/kg AIA vs 200 mg/kg aspirin, FIG. 1
Procedure: Further, the prolongation time of pain threshold of mouse tail was determined in accordance with the D'Amour-Smith Method (J. Pharmacol. Exp. Ther., 72, 74 (1941)). After the subcutaneous administration of the test compounds to mice, the tails of mice were exposed to heat and the prolongation time of pain threshold was determined.

carrageenin edema = test: Carrageenin edema of hind paw (anti-inflammatory activity); assay type: in vivo; conditions: rats, s.c., 50 and 100 mg/kg, FIG. 2, in words
Procedure: Rats were subcutaneously administered the test compounds, and 30 minutes later a carrageenin solution was administered subcutaneously to the foot pad of the rats. The volume of the hind paw was measured at prescribed intervals after the administration of the carrageenin, and the rate of increase in the volume of the paw was calculated and designated as the rate of swelling (%).

[2] = tested on: excised intestinal tract of rats; test: Inhibition of induced contraction of excised intestinal tract; conditions: 100 μg/ml
adjuvant arthritis = test: Adjuvant arthritis (anti-inflammatory activity); assay type: in vivo; conditions: rats, 200 mg/kg per day, 21 days, FIG. 3, in words
Procedure: On the other hand, an adjuvant was administered subcutaneously to only the foot pad of the left hind paw, and 200 mg/kg per day of the test compounds were administered daily for 21 days. The rate of increase in the volume of the both hind paws were measured daily and designated as the rate of swelling (%).

[3] = tested on: stomach, glandular portion; test: Gastric ulcerogenic activity, adjuvant-administered rats; assay type: in vivo; conditions: oral, 200 mg/kg per day, 21 days, control 0.05 ± 0.048, *P < 0.05
Procedure: On the other hand, after administering an adjuvant, the rats were orally administered […] of the test compounds per day for 21 days. On the 21st day the stomachs were removed, and the lengths of the lesions in the glandular portion were measured.

Solubility = assay type: physicochemical
[4] = tested on: stomach, glandular portion; test: Gastric ulcerogenic activity, pylorus-ligated rats; assay type: in vivo; conditions: for Length of Stomach Lesion (cm): pylorus-ligated rats, oral, 100 mg/kg, 7 hours
Procedure: Immediately after ligation of the pylorus of fasted rats, the test compounds were administered orally. The stomachs were removed 7 hours later, and the lengths of the lesions in the glandular portion were measured.

[5] = Hygroscopicity and stability; assay type: physicochemical; conditions: in words, no test described; listed as formula (I)
rats (E. coli pyrogen) = test: Antipyretic activity, E. coli suspension as pyrogen; assay type: in vivo; conditions: s.c., 100 mg/kg, 2 hours after pyrogen
Procedure: Rats received a sterilized E. coli suspension (1 platinum loop/2 ml saline, 0.5 ml/100 g, i.v.) as a pyrogen, and 2 hours later the test compounds were injected subcutaneously. The temperature was taken at hourly intervals before and after injection of the test compounds.

[6] = tested on: mice (acetic acid writhings); test: Inhibition of acetic acid-induced writhing in mice (analgetic activity); assay type: in vivo; conditions: for No. of Writhings: 30 minutes before acetic acid i.p., control 32.2 ± 3.7; for Inhibition (%): writhing, based on the control group
Procedure: The number of writhings that occurred when mice were administered an acetic acid solution intraperitoneally were counted, and the rate of inhibition based on the control group was calculated. The test compounds were administered to the mice 30 minutes before the acetic acid solution was administered.

Acute toxicity (LD 50) = assay type: in vivo; conditions: mouse, in vivo, male ddy mice
Procedure: (§1) The acute toxicity of AIA was tested using male mice (ddy, body weight 18-25 g), and the dose at which 50% of the animal population were killed (LD 50) was determined.

male mice = test: Acute toxicity (LD 50); assay type: in vivo; conditions: male ddy mice, in words
Procedure: as §1

[7] = background statement on aspirin; cited from earlier work
[8] = ip, intraperitoneal, read-out: LD 50 (g/kg), Intraperitoneal administration
[9] = sc, subcutaneous, read-out: LD 50 (g/kg), Subcutaneous administration
[10] = oral, read-out: LD 50 (g/kg), Oral administration

Compound | Length of Stomach Lesion (cm) [3] [cm] | Length of Stomach Lesion (cm) [4] [cm] | No. of Writhings ([6]; 50 mg/kg) | Inhibition (%) ([6]; 50 mg/kg) | No. of Writhings ([6]; 100 mg/kg) | Inhibition (%) ([6]; 100 mg/kg) | LD50 (Acute toxicity (LD 50); [8]) [g/kg] | LD50 (Acute toxicity (LD 50); [9]) [g/kg] | LD50 (Acute toxicity (LD 50); [10]) [g/kg] | also measured
CC(=O)Oc1ccccc1C(=O)NCc1c(C(C)C)c(=O)n(-c2ccccc2)n1C [AIA, N-3'a-propylphenazonyl-2-acetoxybenzamide] | 0.04 ± 0.031 | 0.11 ± 0.09 | 22.1 ± 3.3 | 31.4 | 18.3 ± 1.7 | 43.2 | 3.67 ± 0.07 | > 5 | > 5 | Analgetic activity (prolongation of pain threshold) compared with aspirin [1]: stronger analgetic activity than the group administered 200 mg/kg of aspirin; Inhibition of carrageenin edema formation (carrageenin edema): has the activity of inhibiting carrageenin edema formation; Inhibition of contraction induced by acetylcholine ([2]; acetylcholine): inhibit the contraction; Inhibition of contraction induced by barium chloride ([2]; barium chloride): inhibit the contraction; Inhibition of contraction induced by histamine ([2]; histamine): inhibit the contraction; Inhibitory effect on adjuvant arthritis compared with aspirin (adjuvant arthritis): inhibitory effect on adjuvant arthritis comparable to that of aspirin; Solubility in acetone (Solubility; acetone): dissolves readily; Solubility in chloroform (Solubility; chloroform): dissolves fairly well; Solubility in ethanol (Solubility; ethanol): dissolves readily; Solubility in methanol (Solubility; methanol): dissolves readily; Solubility in water (Solubility; water): practically insoluble; Injury to the stomach (Tables 2A and 2B) ([4]; rats, in words, Tables 2A and 2B): little or no injury is caused to the stomach; Hygroscopicity [5]: free of hygroscopicity; also recorded: not hygroscopic; Stability [5]: stable; also recorded: good stability; Antipyretic activity (rats (E. coli pyrogen)): demonstrated antipyretic activity; Analgetic activity (writhing) compared with aspirin ([6]; in words): analgetic activity comparable to that of aspirin; Acute toxicity compared with aspirin (male mice): extremely low as compared with that of aspirin
CC(=O)Oc1ccccc1C(=O)O [Aspirin, acetylsalicylic acid] | 3.29 ± 1.37 | 4.13 ± 1.24 | 17.2 ± 4.0 | 46.6 | 15.3 ± 2.4 | 52.5 | 0.76 ± 0.09 | 1.02 ± 0.11 | 11.6 ± 0.07 | Hygroscopicity [7]: hygroscopic
